Laboratory results from article PMC5108082, “Pharmacokinetics, toxicity, and cytochrome P450 modulatory activity of plumbagin” (BMC Pharmacology & Toxicology, 2016).
“Also recorded” adds a separate entry of the source.

Legend:
[1] = subacute toxicity test, daily oral dose for 28 days; type: in vivo, rat; settings: both sexes, Wistar, rat, in vivo, rats, daily oral doses for 28 days
Description: (§1) Plumbagin was dissolved with 20 % Tween-80 to obtain the desired concentrations. Wistar rats were fasting 2 h before administration of a single oral dose of the plumbagin. Animals were divided into eight groups of six (3 males and 3 females for each group). For the acute toxicity test, rats in each group were fed with plumbagin at a single oral dose of 500, 250, or 150 mg/kg body weight (1 mL); control group received a single oral dose of 20 % Tween-80 (1 mL). For the subacute toxicity test, rats in each group were fed with plumbagin at a daily dose of 100, 50, or 25 mg/kg body weight (1 mL) for 28 days; control group received a daily oral dose of 20 % Tween-80 for 28 days (1 mL).
(§2) General behavioral changes of each rat was observed continuously for 1 h after each dose, intermittently every 4 h, and thereafter over a period of 24 h. […] At the end of the observation period, all animals were sacrificed under ether anesthesia (isoflurane) and vital organs (liver, lung, kidney, heart, and spleen) were removed from all animals for gross and histopathological examination. Blood sample was collected from each rat through cardiac puncture for analysis of plasma chemistry (heparin as an anticoagulant) and blood hematology (EDTA as an anticoagulant).

Wistar rats = test: as above; type: in vivo, rat
Description: as §1, §2

CYP1A2 = CYP1A2 activity (phenacetin O-deethylation) in liver microsomes of treated mice; type: in vivo, mouse; settings: for modulation of CYP1A2 activity (paracetamol produced): mice, 25, 12.5, 6.25 mg/kg daily oral for 28 days vs control
Description: Mice were divided into four groups (3 male mice each). Mice in the treated groups were fed with plumbagin at a daily oral dose of 25, 12.5, or 6.25 mg/kg body weight (1 mL) for 28 days. The control group received a daily oral dose (1 mL) of 20 % Tween-80 for 28 days. At the end of the experiment period, all animals were sacrificed under ether anesthesia and livers were removed for investigation of the modulatory effect of plumbagin on hepatic CYP1A2 and CYP3A11.
The liver samples were rinsed with ice-cold, 0.9 %NaCl, homogenized in 50 mM sodium phosphate buffer (pH 7.4) containing 0.1 mM EDTA, and centrifuged at 9000 × g for 20 min. The supernatant was ultracentrifuged at 105,000 × g for 60 min, and the resulting microsomal pellets were suspended with ice cold 1.15 % KCl solution and ultracentrifuged at 105,000 × g for 60 min. The pellets were homogenized with 50 mM potassium phosphate (pH 7.4) containing 0.1 mM EDTA and 10 % glycerol. Protein concentrations were determined by Bradford protein assay and the suspended microsomes were aliquoted and stored at −80 °C until use.
Phenacetin O-deethylation and nifedipine oxidation were used as selective markers for CYP1A2 and CYP3A11 activities, respectively. The substrate concentration equivalent to the apparent Km (Michaelis-Menten constant) of each individual CYP450 was used in the experiment. Final concentration of organic solvent in the incubation mixture was less than 1 %. The incubation conditions for determination enzyme activity to both CYP450 isoforms were according to the previously described methods.
The incubation mixture of 500 μL containing the selective substrate (20 μM phenacetin and 40 μm nifedipine for CYP1A2 and CYP3A11, respectively), mice liver microsomes (in 100 mM phosphate buffer pH 7.4) was pre-incubated at 37 °C for 5 min in a shaking water bath. […] Concentrations of paracetamol (metabolite of CYP1A2) and oxidized nifedipine (metabolite of CYP3A11) in the incubation mixtures were determined using HPLC with UV detection. […]

[2] = test system: K1 chloroquine-resistant P. falciparum; settings: K1 clone; read-out: median IC50; cited from earlier work
[3] = test system: human colon epithelial cell monolayer Caco-2; settings: cited from earlier work
[4] = test system: platelet adhesion and coagulation; settings: rats, daily doses of 2 mg/kg body weight; plumbagin as a component of Plumbago zeylanica; cited from earlier work
[5] = 25 mg/kg body weight daily for 28 days
[6] = 25 mg/kg daily oral for 28 days, median (interquartile range)

In the case of `CC1=CC(=O)c2c(O)cccc2C1=O` [plumbagin, 5-hydroxy-2-methyl-1,4-naphthoquinone], the LD50 at 28 days ([1]; read-out: 50 % lethal dose (LD50), subacute toxicity) is reported as 50 to 100 mg/kg, the MTD at 28 days ([1]; read-out: maximum tolerated dose, subacute toxicity) is reported as 25 mg/kg and the “behavior, signs of toxicity, water and food consumption, body weight” value (Wistar rats; [5]) is reported as “no abnormality in behavior, sign of toxicity, nor changes in water and food consumption, as well as body weights”. For the same compound, the “histopathological examination (liver, kidney, heart, spleen, lung)” value (Wistar rats; [5]) was “no significant change in size and morphology”, the survival (Wistar rats; [5]) was “all rats survived” and the “changes in blood chemistry and hematology” value (Wistar rats; 25 mg/kg body weight daily for 28 days vs control) was “no significant changes in blood chemistry and hematology; also recorded: no significant change in hematological and blood biochemistry profiles”. For the same compound, the Blood morphology (Wistar rats; 25 mg/kg daily oral for 28 days) was “Normal”, the ALT (Wistar rats; [6]) was 30 (11) U/L and the AST (Wistar rats; [6]) was 101 (15) U/L. The BUN (Wistar rats; [6]) was 22.0 (7.5) mg/dL, the Cholesterol (Wistar rats; [6]) was 73 (6) mg/dL and the Creatinine (Wistar rats; [6]) was 0.50 (0.00) mg/dL. For the same compound, the Eosinophils (Wistar rats; [6]) was 0.00 (1.00) ×10^3/μL, the Glucose (Wistar rats; [6]) was 230 mg/dL and the Hematocrit (Wistar rats; [6]) was 47.8 (2.6) %. The Hemoglobin (Wistar rats; [6]) was 14.4 (1.2) g/dL, the Lymphocytes (Wistar rats; [6]) was 7.59 (0.31) ×10^3/μL and the Monocytes (Wistar rats; [6]) was 0.00 (1.00) ×10^3/μL. The Neutrophils (Wistar rats; [6]) was 2.20 (0.63) ×10^3/μL, the Platelets count (Wistar rats; [6]) was 885.50 (73.75) ×10^3/μL and the RBC (Wistar rats; [6]) was 8.16 (0.72) ×10^6/μL. The Triglyceride (Wistar rats; [6]) was 110 (9) mg/dL, the WBC (Wistar rats; [6]) was 9.40 (0.65) ×10^3/μL and the Glucose (Wistar rats; 25 mg/kg daily oral for 28 days, median (interquartile range), listed as Plumbagin) was 230 (59) mg/dL. For the same compound, the rats died (Wistar rats; 50 mg/kg body weight daily) was “two rats”, the “rats with toxic signs and symptoms” value (Wistar rats; 50 mg/kg body weight daily) was 2/6 and the time to death (Wistar rats; 50 mg/kg body weight daily) was 12 to 16 days. For the same compound, the rats died (Wistar rats; 100 mg/kg body weight daily) was “All rats”, the “rats with toxic signs and symptoms” value (Wistar rats; 100 mg/kg body weight daily) was 6/6 and the time to death (Wistar rats; 100 mg/kg body weight daily) was 6 to 10 days. The gender-specific toxicity (Wistar rats; all dose levels) was “No gender-specific toxicity was observed”, the “modulation of CYP1A2 activity (paracetamol produced)” value (CYP1A2) was “no significant change; also recorded: not found to induce or inhibit” and the “modulation of CYP1A2 activity (paracetamol produced)” value (CYP1A2; listed as Plumbagin) was “did not significantly modulate”. For the same compound, the “trend of CYP1A2 activity” value (CYP1A2; particularly at the lowest dose level of 6.25 mg/kg body weight) was “tended to be reduced”, the IC50 [2] was 370 nM and the “influence of efflux protein on permeability” value ([3]; Caco-2) was “no influence of efflux protein”. For the same compound, the permeability ([3]; Caco-2) was “moderate”, the transport mechanism [3] was “passive transport” and the “platelet adhesion and coagulation” value [4] was “significantly decreased”.
